The values that follow come from paper PMC4650693, “Characterization of two-step deglycosylation via oxidation by glycoside oxidoreductase and defining their subfamily” (Scientific Reports, 2015).

The target of this assay is T1, FAD-GO from Rhizobium sp. GIN611 (Rhizobium sp. GIN611, UniProt G9ILI7).
T1 construct: recombinant, expressed in E. coli Rosetta-gami 2 (DE3, pLysS)
T1 sequence (G9ILI7 1-561): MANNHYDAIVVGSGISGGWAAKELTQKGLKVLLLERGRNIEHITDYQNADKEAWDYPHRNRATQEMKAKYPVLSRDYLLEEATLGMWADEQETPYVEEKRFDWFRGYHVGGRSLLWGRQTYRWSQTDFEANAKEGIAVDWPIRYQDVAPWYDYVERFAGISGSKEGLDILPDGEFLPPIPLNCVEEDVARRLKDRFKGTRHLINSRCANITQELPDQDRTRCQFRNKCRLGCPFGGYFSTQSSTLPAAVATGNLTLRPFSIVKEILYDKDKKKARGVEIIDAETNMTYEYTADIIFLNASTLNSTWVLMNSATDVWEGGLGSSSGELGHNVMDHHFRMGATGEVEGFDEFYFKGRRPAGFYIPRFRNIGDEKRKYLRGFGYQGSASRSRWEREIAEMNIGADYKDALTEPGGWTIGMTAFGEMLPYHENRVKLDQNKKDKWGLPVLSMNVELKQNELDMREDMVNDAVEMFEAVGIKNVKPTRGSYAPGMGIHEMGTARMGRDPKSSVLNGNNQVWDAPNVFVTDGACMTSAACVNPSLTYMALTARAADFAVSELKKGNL
The assay can be described thus: HPLC of oxidation and deglycosylation products. In kind it is biochemical. The conditions noted are these: C3-OH of glucose oxidised; FAD enzyme, O2. From the text:
HPLC of oxidation and deglycosylation products on FAD-GO from Rhizobium sp.

As for `CC(C)=CCC[C@](C)(O[C@@H]1O[C@H](CO)[C@@H](O)[C@H](O)[C@H]1O)[C@H]1CC[C@]2(C)[C@@H]1[C@H](O)C[C@@H]1[C@@]3(C)CC[C@H](O)C(C)(C)[C@@H]3CC[C@]12C` [CK, Compound K], the “HPLC of oxidation and deglycosylation products” value was “HPLC chromatogram of enzyme reactions using wild type, H493F mutant or H493A mutant enzyme”.
